Results as given in patent US12077503B2, “Substituted cyclic amides and their use as herbicides” (FMC CORPORATION, priority 2015, dated 2024).

Assays:
Format in all cases: in vivo
rice (Oryra sativa) = assay: Test B flooded paddy test; conditions: Oryza sativa, 250 g ai/ha, Flood; 0 to 100 scale where 0 is no effect and 100 is complete control; read-out: Rice plant response rating
How it was run: (§1)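 Flooding to 3 cm over soil accompanied treatment, which consisted of adding compound to the standing water around 2-leaf plants; depth was then maintained. Visual assessment versus controls followed at 13 to 15 d (scale 0–100, 0 meaning no effect).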

[1] = tested on: barnyardgrass (Echinochloa crus-galli); assay: Test B flooded paddy test; conditions: Echinochloa crus-galli, 250 g ai/ha, Flood; 0 to 100 scale where 0 is no effect and 100 is complete control; read-out: Barnyardgrass plant response rating
How it was run: as §1

[2] = tested on: ducksalad (Heteranthera limosa); assay: Test B flooded paddy test; conditions: Heteranthera limosa, 250 g ai/ha, Flood; 0 to 100 scale where 0 is no effect and 100 is complete control; read-out: Ducksalad plant response rating
How it was run: as §1

[3] = tested on: sedge, umbrella (small-flower umbrella sedge, Cyperus difformis); assay: Test B flooded paddy test; conditions: Cyperus difformis, 250 g ai/ha, Flood; 0 to 100 scale where 0 is no effect and 100 is complete control; read-out: Sedge, Umbrella plant response rating
How it was run: as §1

[4] = tested on: ryegrass, Italian (Italian ryegrass, Lolium multiflorum); assay: Test A preemergence; conditions: Lolium multiflorum, pre-emergence, 240 h, 0 to 100 scale where 0 is no effect and 100 is complete control, read-out: Ryegrass, Italian plant response rating
How it was run: (§2)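 In a loam soil and sand blend, planted seeds got a preemergence directed soil spray, and young plants at the one- to two-leaf stage, 2–10 cm high, got a postemergence application; ~10 d greenhouse hold; injury rated visually, 0 = none, 100 = complete control.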

Kochia (Kochia scoparia) [5] = assay: Test A preemergence; conditions: Bassia scoparia, pre-emergence, 240 h, 0 to 100 scale where 0 is no effect and 100 is complete control, read-out: Kochia plant response rating
How it was run: as §2

[6] = tested on: barnyardgrass (Echinochloa crus-galli); assay: Test A preemergence; conditions: Echinochloa crus-galli, pre-emergence, 240 h, 0 to 100 scale where 0 is no effect and 100 is complete control, read-out: Barnyardgrass plant response rating
How it was run: as §2

[7] = tested on: pigweed (Amaranthus retroflexus); assay: Test A preemergence; conditions: Amaranthus retroflexus, pre-emergence, 240 h, 0 to 100 scale where 0 is no effect and 100 is complete control, read-out: Pigweed plant response rating
[8] = tested on: giant foxtail (Setaria faberii); assay: Test A preemergence; conditions: Setaria faberi, pre-emergence, 240 h, 0 to 100 scale where 0 is no effect and 100 is complete control, read-out: Foxtail, Giant plant response rating
How it was run: as §2

[9] = tested on: ragweed (common ragweed, Ambrosia elatior); assay: Test A preemergence; conditions: Ambrosia artemisiifolia, pre-emergence, 240 h, 0 to 100 scale where 0 is no effect and 100 is complete control, read-out: Ragweed plant response rating
How it was run: as §2

[10] = tested on: ryegrass, Italian (Italian ryegrass, Lolium multiflorum); assay: Test A postemergence; conditions: Lolium multiflorum, post-emergence, 240 h
How it was run: as §2

Kochia (Kochia scoparia) [11] = assay: Test A postemergence; conditions: Bassia scoparia, post-emergence, 240 h
How it was run: as §2

[12] = tested on: wheat (Triticum aestivum); assay: Test A postemergence; conditions: Triticum aestivum, post-emergence, 240 h
How it was run: as §2

[13] = tested on: barnyardgrass (Echinochloa crus-galli); assay: Test A postemergence; conditions: Echinochloa crus-galli, post-emergence, 240 h
How it was run: as §2

[14] = tested on: pigweed (Amaranthus retroflexus); assay: Test A postemergence; conditions: Amaranthus retroflexus, post-emergence, 240 h
How it was run: as §2

[15] = tested on: blackgrass (Alopecurus myosuroides); assay: Test A postemergence; conditions: Alopecurus myosuroides, post-emergence, 240 h
How it was run: as §2

[16] = tested on: giant foxtail (Setaria faberii); assay: Test A postemergence; conditions: Setaria faberi, post-emergence, 240 h
How it was run: as §2

[17] = tested on: Galium (catchweed bedstraw, Galium aparine); assay: Test A postemergence; conditions: Galium, post-emergence, 240 h
How it was run: as §2

corn (Zea mays) = assay: Test A postemergence; conditions: Zea mays, post-emergence, 240 h
How it was run: as §2

[18] = tested on: ragweed (common ragweed, Ambrosia elatior); assay: Test A postemergence; conditions: Ambrosia artemisiifolia, post-emergence, 240 h
How it was run: as §2

[19] = 125 g ai/ha, preemergence, approx. 10 d

CN1C[C@H](c2csc3c2CCOC3)[C@@H](C(=O)Nc2ccc(F)c(F)c2F)C1=O [Compound 1077]
20%: pest or weed control at 125 g/ha (Kochia (Kochia scoparia) [5]; [19]) | pest or weed control at 125 g/ha ([10]; 125 g ai/ha, postemergence, visual injury on 0 to 100 scale (0 no effect, 100 complete control), approx. 10 d, read-out: Ryegrass, Italian plant response rating) | pest or weed control at 31 g/ha ([17]; Postemergence, 31 g ai/ha, visual injury after approx. 10 d, 0 to 100 scale, 0 no effect, 100 complete control, read-out: Plant response rating, Galium)
80%: pest or weed control at 31 g/ha ([6]; 31 g ai/ha, Preemergence)
10%: pest or weed control at 125 g/ha [4, 19] | plant injury at 125 g/ha (corn (Zea mays); 125 g ai/ha, postemergence, visual injury on 0 to 100 scale (0 no effect, 100 complete control), approx. 10 d, read-out: Corn plant response rating)
50%: pest or weed control at 31 g/ha ([16]; Postemergence, 31 g ai/ha, visual injury after approx. 10 d, 0 to 100 scale, 0 no effect, 100 complete control, read-out: Plant response rating, Foxtail, Giant)
15%: pest or weed control at 250 g/ha (rice (Oryra sativa))
90%: pest or weed control at 250 g/ha [2] | pest or weed control at 125 g/ha ([13]; 125 g ai/ha, postemergence, visual injury on 0 to 100 scale (0 no effect, 100 complete control), approx. 10 d, read-out: Barnyardgrass plant response rating) | pest or weed control at 125 g/ha ([16]; 125 g ai/ha, postemergence, visual injury on 0 to 100 scale (0 no effect, 100 complete control), approx. 10 d, read-out: Foxtail, Giant plant response rating)
85%: pest or weed control at 250 g/ha [1]
100%: pest or weed control at 125 g/ha [6, 19] | pest or weed control at 31 g/ha ([8]; 31 g ai/ha, Preemergence) | pest or weed control at 125 g/ha [8, 19]
70%: pest or weed control at 31 g/ha ([13]; Postemergence, 31 g ai/ha, visual injury after approx. 10 d, 0 to 100 scale, 0 no effect, 100 complete control, read-out: Plant response rating, Barnyardgrass) | pest or weed control at 125 g/ha ([17]; 125 g ai/ha, postemergence, visual injury on 0 to 100 scale (0 no effect, 100 complete control), approx. 10 d, read-out: Galium plant response rating)
30%: pest or weed control at 125 g/ha ([15]; 125 g ai/ha, postemergence, visual injury on 0 to 100 scale (0 no effect, 100 complete control), approx. 10 d, read-out: Blackgrass plant response rating)
0%: pest or weed control at 250 g/ha [3] | pest or weed control at 31 g/ha ([4]; 31 g ai/ha, Preemergence) | pest or weed control at 31 g/ha (Kochia (Kochia scoparia) [5]; 31 g ai/ha, Preemergence) | pest or weed control at 31 g/ha ([7]; 31 g ai/ha, Preemergence) | pest or weed control at 125 g/ha [7, 19] | pest or weed control at 31 g/ha ([9]; 31 g ai/ha, Preemergence) | pest or weed control at 125 g/ha [9, 19] | pest or weed control at 31 g/ha ([10]; Postemergence, 31 g ai/ha, visual injury after approx. 10 d, 0 to 100 scale, 0 no effect, 100 complete control, read-out: Plant response rating, Ryegrass, Italian) | pest or weed control at 125 g/ha (Kochia (Kochia scoparia) [11]; 125 g ai/ha, postemergence, visual injury on 0 to 100 scale (0 no effect, 100 complete control), approx. 10 d, read-out: Kochia plant response rating) | pest or weed control at 31 g/ha (Kochia (Kochia scoparia) [11]; Postemergence, 31 g ai/ha, visual injury after approx. 10 d, 0 to 100 scale, 0 no effect, 100 complete control, read-out: Plant response rating, Kochia) | plant injury at 125 g/ha ([12]; 125 g ai/ha, postemergence, visual injury on 0 to 100 scale (0 no effect, 100 complete control), approx. 10 d, read-out: Wheat plant response rating) | plant injury at 31 g/ha ([12]; Postemergence, 31 g ai/ha, visual injury after approx. 10 d, 0 to 100 scale, 0 no effect, 100 complete control, read-out: Plant response rating, Wheat) | pest or weed control at 125 g/ha ([14]; 125 g ai/ha, postemergence, visual injury on 0 to 100 scale (0 no effect, 100 complete control), approx. 10 d, read-out: Pigweed plant response rating) | pest or weed control at 31 g/ha ([14]; Postemergence, 31 g ai/ha, visual injury after approx. 10 d, 0 to 100 scale, 0 no effect, 100 complete control, read-out: Plant response rating, Pigweed) | pest or weed control at 31 g/ha ([15]; Postemergence, 31 g ai/ha, visual injury after approx. 10 d, 0 to 100 scale, 0 no effect, 100 complete control, read-out: Plant response rating, Blackgrass) | Corn plant response rating (crop injury, 0 = no effect, 100 = complete kill) at 31 g/ha (corn (Zea mays); Postemergence, 31 g ai/ha, visual injury after approx. 10 d, 0 to 100 scale, 0 no effect, 100 complete control) | pest or weed control at 125 g/ha ([18]; 125 g ai/ha, postemergence, visual injury on 0 to 100 scale (0 no effect, 100 complete control), approx. 10 d, read-out: Ragweed plant response rating) | pest or weed control at 31 g/ha ([18]; Postemergence, 31 g ai/ha, visual injury after approx. 10 d, 0 to 100 scale, 0 no effect, 100 complete control, read-out: Plant response rating, Ragweed)
